pEC50, pKi: −log10 of the molar value.
Legend:
hM4Di = target: T1, hM4Di (Homo sapiens, UniProt P08173, A203G/Y113C); assay: FLIPR Ca2+ oscillation assay in primary rat neuronal cultures transduced with hM4Di; format: cell-based
T1 construct: expressed in transfected cells; host or cells: primary cortical neurons of embryonic (E18) Sprague-Dawley rats, AAV-transduced
T1 sequence (P08173 1-479 Y113C/A203G): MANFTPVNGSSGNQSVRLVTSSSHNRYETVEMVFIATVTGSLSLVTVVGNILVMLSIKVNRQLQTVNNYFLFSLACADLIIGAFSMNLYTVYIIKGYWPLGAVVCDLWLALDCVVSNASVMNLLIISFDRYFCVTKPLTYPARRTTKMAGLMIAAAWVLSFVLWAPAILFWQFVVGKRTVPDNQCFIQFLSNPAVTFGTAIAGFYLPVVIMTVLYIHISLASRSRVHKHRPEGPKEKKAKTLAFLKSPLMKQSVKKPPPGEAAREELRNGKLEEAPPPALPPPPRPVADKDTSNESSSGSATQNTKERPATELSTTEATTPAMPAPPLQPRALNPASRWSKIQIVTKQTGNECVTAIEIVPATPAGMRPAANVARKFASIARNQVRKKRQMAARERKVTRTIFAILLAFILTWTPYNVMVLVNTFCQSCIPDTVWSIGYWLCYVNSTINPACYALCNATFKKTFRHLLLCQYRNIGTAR
Procedure: Briefly, cortices were dissected from embryonic brains, meninges were removed, and cortices transferred into ice-cold dissociation buffer (2 mM kynurenic acid, 10 mM HEPES, 20 mM MgCl2 (Fluka, Germany) and 33.4 mM Glucose in Hank’s Balanced Salt Solution (HBSS), pH 7.4 (Gibco, Thermo Fischer Scientific, Massachusetts, USA). Cortices were then dissociated in 20 units/ml papain solution (5.5 mM L- Cysteine hydrochloride, 1.1 mM ethylenediamine tetra-acetic acid [EDTA], 0.067 mM 2-Mercaptoethanol in Minimum Essential Medium [MEM]) for 15 min at 37 °C. Cortices were washed twice by adding 20 ml plating medium (1:50 foetal calve serum, 1:100 penicillin/streptomycin and 1:100 GlutaMax in MEM) followed by cell filtration using a 70 µm cell strainer (Corning, model #352350, Merck, Germany) to obtain a single-cell suspension. Dissociated cells were re-suspended in serum-free Neurobasal medium with Glutamax and B27 supplement (Gibco) and plated on PDL-coated 96 MTPs (Corning #356640). Virus (ssAAV-1/2-hSyn1-hM4D[Gi]_mCherry-WPRE-hGHp[A]) transduction was performed immediately after plating. Cells were maintained at 37 °C (5% CO2 and 10% O2) in a humidified incubator. A half feed medium change was done on DIV8. Final assay conditions used for evaluating activity of compounds were 0.95 × 10^5 cells/cm^2, transduced with 10.000 multiplicity of infection and measured on DIV9.
Medium was removed and cells were incubated in assay buffer (HBSS, Gibco, 10 mM HEPES, pH 7.4) containing 4 µM Fluo-4AM (Thermo Fischer Scientific) and 0.1% Pluronic F-127 (Thermo Fischer Scientific #P3000MP) for 1 h at room temperature in the dark. Loading buffer was then replaced with assay buffer. After 10 min, assay plates were measured in the FLIPR tetra (Molecular Devices, California, USA) using green fluorescence filter settings (excitation 470–495 nm, emission 515–575 nm). Fluorescence signals were recorded at 1 s intervals (0.4 s exposure time). Compound addition was automated in a single addition protocol. Tested compounds (concentrations:0.3 nM–1 µM; retigabine at 30 µM) were added after recording a baseline response for 5 min followed by another 5 min for recording compound effects on Ca^2+ oscillations. Each compound dose was repeated on three individual plates in duplicates.
Time-series raw fluorescence traces recorded from the FLIPR assay were analysed by detecting Ca^2+ peaks based on a fixed amplitude threshold[19]. The change in oscillation frequency was determined by counting the number of peaks in a defined time interval (5 min) before and after addition of the tested compound and calculating the Ca^2+ oscillations frequency from their number. […] For visualisation, all data were transferred to GraphPad Prism 7 (Graphpad Software, Inc., CA, USA).

[1] = target: human M4 muscarinic receptor (Homo sapiens, UniProt P08173); assay: Potency at parent receptor of hM4Di; format: cell-based; details: data not shown
α1A adrenoreceptor = target: T2, α1A adrenoreceptor (Homo sapiens, UniProt P35348); assay: Off-target radioligand binding; details: 10 μM compound
T2 construct: expressed in transfected cells; host or cells: HEK-293 or CHO

α2A adrenoreceptor = target: T3, α2A adrenoreceptor (Homo sapiens, UniProt P08913); assay: Off-target radioligand binding; details: 10 μM compound
T3 construct: expressed in transfected cells; host or cells: HEK-293 or CHO

D1 dopamine receptor = target: T4, D1 dopamine receptor (Homo sapiens, UniProt P21728); assay: Off-target radioligand binding; details: 10 μM compound
T4 construct: expressed in transfected cells; host or cells: HEK-293 or CHO

D2 dopamine receptor = target: T5, D2 dopamine receptor (Homo sapiens, UniProt P14416); assay: Off-target radioligand binding; details: 10 μM compound
T5 construct: expressed in transfected cells; host or cells: HEK-293 or CHO

H1 histamine receptor = target: T6, H1 histamine receptor (Homo sapiens, UniProt P35367); assay: Off-target radioligand binding
T6 construct: expressed in transfected cells; host or cells: HEK-293 or CHO

M1 muscarinic receptor = target: T7, M1 muscarinic receptor (Homo sapiens, UniProt P11229); assay: Off-target radioligand binding; details: 10 μM compound
T7 construct: expressed in transfected cells; host or cells: HEK-293 or CHO

M2 muscarinic receptor = target: T8, M2 muscarinic receptor (Homo sapiens, UniProt P08172); assay: Off-target radioligand binding; details: 10 μM compound
T8 construct: expressed in transfected cells; host or cells: HEK-293 or CHO

M3 muscarinic receptor = target: T9, M3 muscarinic receptor (Homo sapiens, UniProt P20309); assay: Off-target radioligand binding; details: 10 μM compound
T9 construct: expressed in transfected cells; host or cells: HEK-293 or CHO

[2] = target: T10, 5-HT1A serotonin receptor (Homo sapiens, UniProt P08908); assay: Off-target radioligand binding; details: 10 μM compound
T10 construct: expressed in transfected cells; host or cells: HEK-293 or CHO

[3] = tested on: 5-HT1B serotonin receptor; assay: Off-target radioligand binding; set-up: species or system human; details: 10 μM compound
[4] = target: T11, 5-HT2B serotonin receptor (Homo sapiens, UniProt P41595); assay: Off-target radioligand binding
T11 construct: expressed in transfected cells; host or cells: HEK-293 or CHO

COX1 = COX1 (Homo sapiens, UniProt P23219); assay: Off-target enzyme assay; format: biochemical; details: 10 μM compound, not shown
COX2 = COX2 (Homo sapiens, UniProt P35354); assay: Off-target enzyme assay; format: biochemical; details: 10 μM compound, not shown
PDE4D2 = PDE4D2 (Homo sapiens, UniProt Q08499); assay: Off-target enzyme assay; format: biochemical; details: 10 μM compound, not shown
Lck kinase = Lck kinase (Homo sapiens, UniProt P06239); assay: Off-target enzyme assay; format: biochemical; details: 10 μM compound, not shown
AChE = AChE (Homo sapiens, UniProt P22303); details: 10 μM compound, not shown
hM3Dq = tested on: hM3Dq; set-up: method as in PMID 25587888; details: FLIPR assay; cited from earlier work
[5] = Pharmacokinetics in plasma, CSF and cortical brain tissue after i.p. injection; details: mice; for mean concentration in brain: cortical tissue
Procedure: Blood (approximately 100 µl) was collected from the vena facialis in anaesthetised animals, followed by CSF sampling (approximately 10 µl) from the cisterna magna under pentobarbital anaesthesia (1:25 in saline, 10 ml/kg, i.p., Narcoren, Boehringer Ingelheim, Germany). Subsequently, the brain was removed and its anterior third (including the medial prefrontal and anterior cingulate cortices) dissected and transferred into Precellys tubes cooled in liquid nitrogen. For plasma extraction, blood was transferred to EDTA coated tubes and centrifuged for 10 min at 10,000 rpm at 4 °C. Maximal plasma concentration (Cmax), time taken to reach maximal plasma concentration (Tmax) and mean residence time were assessed using liquid chromatography–mass spectrometry analysis executed on the HP1200 (Agilent, CA, USA) coupled to the API 6500 (AB Sciex, Germany) using BI00001052 (Boehringer Ingelheim) as internal standard. In short, 5 µl of plasma or CSF sample were mixed with 10 nl internal standard. 70 µl acetonitrile (ACN)/methanol (1:1) was added, kept at −20 °C for 15 min and centrifuged for 4 min at 4000 rpm at 4 °C. 30 µl of the supernatant was mixed with 170 µl 0.1% formic acid. Brain homogenization was executed by Precellys Evolution (Bertin) after adding ACN/methanol (1:1)/aq.dest. (3:1) to each brain sample with a volume corresponding to 4 parts of the brain weight, followed by centrifugation for 1 min at 4000 rpm at 4 °C. 5 µl of the supernatant was mixed with 10 nl of internal standard.

[6] = 15 min after i.p. 3.5 mg/kg CNO
[7] = 30 min after i.p. 3.5 mg/kg CNO
[8] = 60 min after i.p. 3.5 mg/kg CNO

T6 sequence (P35367 whole entry): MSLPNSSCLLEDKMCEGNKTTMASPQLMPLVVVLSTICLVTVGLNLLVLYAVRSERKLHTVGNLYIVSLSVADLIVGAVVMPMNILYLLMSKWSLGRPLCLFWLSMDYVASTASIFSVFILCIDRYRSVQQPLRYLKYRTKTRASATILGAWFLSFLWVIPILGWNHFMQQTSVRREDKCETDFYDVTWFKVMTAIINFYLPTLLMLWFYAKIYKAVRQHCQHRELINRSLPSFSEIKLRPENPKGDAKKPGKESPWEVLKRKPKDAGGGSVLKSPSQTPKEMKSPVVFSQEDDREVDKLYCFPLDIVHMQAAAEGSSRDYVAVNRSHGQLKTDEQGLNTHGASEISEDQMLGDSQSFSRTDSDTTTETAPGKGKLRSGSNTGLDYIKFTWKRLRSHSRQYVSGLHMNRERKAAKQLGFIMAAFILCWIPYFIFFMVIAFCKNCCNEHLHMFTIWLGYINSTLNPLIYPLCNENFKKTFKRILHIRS
T11 sequence (P41595 whole entry): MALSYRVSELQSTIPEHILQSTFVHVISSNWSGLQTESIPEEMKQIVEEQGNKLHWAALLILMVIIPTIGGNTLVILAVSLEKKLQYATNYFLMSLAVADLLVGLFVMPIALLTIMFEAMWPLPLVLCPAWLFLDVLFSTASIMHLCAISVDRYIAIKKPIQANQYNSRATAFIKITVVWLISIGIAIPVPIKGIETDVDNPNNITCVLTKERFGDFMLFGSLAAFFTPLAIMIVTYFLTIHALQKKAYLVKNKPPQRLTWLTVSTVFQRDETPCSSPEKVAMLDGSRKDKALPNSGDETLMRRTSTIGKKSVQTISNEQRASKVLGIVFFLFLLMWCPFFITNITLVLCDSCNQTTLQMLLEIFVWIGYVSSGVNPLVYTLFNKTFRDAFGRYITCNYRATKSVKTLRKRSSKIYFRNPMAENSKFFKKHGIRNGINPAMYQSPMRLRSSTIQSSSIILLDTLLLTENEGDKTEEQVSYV
T10 sequence (P08908 whole entry): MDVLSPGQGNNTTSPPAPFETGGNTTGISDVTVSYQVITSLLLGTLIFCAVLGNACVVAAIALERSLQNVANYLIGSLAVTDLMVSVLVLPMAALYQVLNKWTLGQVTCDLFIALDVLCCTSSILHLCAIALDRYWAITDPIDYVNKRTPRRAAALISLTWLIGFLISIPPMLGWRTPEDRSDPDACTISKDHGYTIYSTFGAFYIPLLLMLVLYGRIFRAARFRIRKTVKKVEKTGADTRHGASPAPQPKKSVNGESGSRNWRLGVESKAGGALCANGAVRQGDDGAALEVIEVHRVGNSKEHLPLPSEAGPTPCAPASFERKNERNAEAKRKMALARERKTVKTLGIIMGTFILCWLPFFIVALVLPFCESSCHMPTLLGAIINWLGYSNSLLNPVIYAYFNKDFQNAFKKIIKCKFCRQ
Chain of PDE4D2 (Q08499 303-809): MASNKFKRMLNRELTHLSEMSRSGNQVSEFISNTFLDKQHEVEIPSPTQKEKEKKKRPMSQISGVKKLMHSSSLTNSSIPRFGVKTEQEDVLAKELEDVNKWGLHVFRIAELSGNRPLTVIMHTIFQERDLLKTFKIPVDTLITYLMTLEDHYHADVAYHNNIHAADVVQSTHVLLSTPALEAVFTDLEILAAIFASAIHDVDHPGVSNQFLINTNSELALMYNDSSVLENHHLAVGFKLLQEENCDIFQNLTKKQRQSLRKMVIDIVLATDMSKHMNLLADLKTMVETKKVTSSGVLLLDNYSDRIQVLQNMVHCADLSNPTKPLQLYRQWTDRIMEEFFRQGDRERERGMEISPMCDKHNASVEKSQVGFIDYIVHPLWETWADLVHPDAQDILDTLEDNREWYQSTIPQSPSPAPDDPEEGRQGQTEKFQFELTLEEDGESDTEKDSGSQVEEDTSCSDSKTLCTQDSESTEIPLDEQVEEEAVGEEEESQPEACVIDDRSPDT
T7 sequence (P11229 whole entry): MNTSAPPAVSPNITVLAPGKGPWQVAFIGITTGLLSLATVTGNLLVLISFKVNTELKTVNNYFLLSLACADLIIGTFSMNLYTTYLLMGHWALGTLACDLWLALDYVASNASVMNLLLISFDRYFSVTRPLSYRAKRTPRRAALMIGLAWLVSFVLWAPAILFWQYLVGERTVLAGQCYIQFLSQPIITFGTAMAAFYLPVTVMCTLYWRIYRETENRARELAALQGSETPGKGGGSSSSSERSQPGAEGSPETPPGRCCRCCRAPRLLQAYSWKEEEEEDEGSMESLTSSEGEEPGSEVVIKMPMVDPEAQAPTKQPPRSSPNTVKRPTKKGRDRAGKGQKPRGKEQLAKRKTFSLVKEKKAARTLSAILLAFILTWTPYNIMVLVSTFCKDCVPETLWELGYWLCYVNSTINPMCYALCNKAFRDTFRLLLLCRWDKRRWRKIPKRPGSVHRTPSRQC
T4 sequence (P21728 whole entry): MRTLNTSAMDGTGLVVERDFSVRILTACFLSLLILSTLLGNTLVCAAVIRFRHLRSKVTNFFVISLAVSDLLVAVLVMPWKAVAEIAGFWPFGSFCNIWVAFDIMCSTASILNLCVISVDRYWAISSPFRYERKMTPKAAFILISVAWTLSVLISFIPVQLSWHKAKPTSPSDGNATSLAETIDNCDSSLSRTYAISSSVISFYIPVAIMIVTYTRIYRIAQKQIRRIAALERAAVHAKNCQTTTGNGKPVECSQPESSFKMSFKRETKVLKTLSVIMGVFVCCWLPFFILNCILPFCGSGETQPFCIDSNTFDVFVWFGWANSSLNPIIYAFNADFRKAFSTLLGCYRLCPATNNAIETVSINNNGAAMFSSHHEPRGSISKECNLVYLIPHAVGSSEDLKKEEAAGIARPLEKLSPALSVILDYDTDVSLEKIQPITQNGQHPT
Chain of human M4 muscarinic receptor (P08173 whole entry): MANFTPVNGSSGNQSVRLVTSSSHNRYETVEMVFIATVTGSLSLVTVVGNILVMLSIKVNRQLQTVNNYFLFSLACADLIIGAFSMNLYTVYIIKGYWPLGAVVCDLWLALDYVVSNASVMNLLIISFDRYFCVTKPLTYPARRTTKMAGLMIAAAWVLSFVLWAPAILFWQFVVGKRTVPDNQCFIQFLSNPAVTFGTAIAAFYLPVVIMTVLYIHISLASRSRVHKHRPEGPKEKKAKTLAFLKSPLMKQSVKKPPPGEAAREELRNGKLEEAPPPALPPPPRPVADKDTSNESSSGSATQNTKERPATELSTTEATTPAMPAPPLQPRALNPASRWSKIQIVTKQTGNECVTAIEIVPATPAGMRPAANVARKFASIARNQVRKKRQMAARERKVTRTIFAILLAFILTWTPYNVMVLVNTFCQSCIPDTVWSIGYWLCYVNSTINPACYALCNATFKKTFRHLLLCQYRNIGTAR
Chain of Lck kinase (P06239 whole entry): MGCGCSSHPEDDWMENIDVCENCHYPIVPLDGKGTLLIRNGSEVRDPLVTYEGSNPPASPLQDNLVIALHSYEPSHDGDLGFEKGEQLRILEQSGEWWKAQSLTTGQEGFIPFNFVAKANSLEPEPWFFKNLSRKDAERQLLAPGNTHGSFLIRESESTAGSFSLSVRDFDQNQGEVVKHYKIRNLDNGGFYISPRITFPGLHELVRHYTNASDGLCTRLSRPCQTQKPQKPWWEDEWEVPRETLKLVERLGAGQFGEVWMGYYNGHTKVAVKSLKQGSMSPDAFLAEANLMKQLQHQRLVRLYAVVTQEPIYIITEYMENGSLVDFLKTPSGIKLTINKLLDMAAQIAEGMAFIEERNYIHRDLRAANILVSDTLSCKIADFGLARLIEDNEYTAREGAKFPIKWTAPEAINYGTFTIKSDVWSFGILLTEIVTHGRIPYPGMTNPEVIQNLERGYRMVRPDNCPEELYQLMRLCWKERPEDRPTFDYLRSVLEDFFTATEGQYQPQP
T5 sequence (P14416 1-414 isoform P14416-2): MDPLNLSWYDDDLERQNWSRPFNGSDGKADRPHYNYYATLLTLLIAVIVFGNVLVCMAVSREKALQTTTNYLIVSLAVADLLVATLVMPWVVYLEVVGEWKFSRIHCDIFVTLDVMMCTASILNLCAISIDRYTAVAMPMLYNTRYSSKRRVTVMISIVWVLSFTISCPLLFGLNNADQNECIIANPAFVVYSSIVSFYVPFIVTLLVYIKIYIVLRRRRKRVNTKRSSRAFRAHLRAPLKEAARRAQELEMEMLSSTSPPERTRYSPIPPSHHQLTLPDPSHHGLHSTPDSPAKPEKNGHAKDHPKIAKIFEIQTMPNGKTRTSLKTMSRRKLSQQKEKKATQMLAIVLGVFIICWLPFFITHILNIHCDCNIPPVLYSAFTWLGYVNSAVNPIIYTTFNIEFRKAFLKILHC
T2 sequence (P35348 whole entry): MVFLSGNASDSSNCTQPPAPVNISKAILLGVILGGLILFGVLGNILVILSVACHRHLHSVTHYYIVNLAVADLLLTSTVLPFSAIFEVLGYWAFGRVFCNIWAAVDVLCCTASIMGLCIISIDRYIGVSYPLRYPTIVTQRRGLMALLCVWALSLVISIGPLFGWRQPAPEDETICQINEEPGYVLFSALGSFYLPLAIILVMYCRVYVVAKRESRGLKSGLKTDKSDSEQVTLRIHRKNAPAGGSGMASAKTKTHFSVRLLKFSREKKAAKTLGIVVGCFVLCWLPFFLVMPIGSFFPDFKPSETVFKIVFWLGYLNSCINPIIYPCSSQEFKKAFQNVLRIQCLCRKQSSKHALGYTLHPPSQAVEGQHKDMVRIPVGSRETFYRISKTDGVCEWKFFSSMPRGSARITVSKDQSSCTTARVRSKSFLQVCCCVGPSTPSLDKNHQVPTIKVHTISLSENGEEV

C[N+]1([O-])CCN(C2=Nc3cc(Cl)ccc3Nc3ccccc32)CC1 [CNO, clozapine-N-oxide]
times less potent than CLZ at hM4Di (hM4Di; ratio of EC50 values): ~20 times | times less potent than Cmpd-21 at hM4Di (hM4Di; ratio of EC50 values): approximately 2.7 times | pEC50 (hM4Di; reduction of Ca2+ oscillation frequency, hM4Di-transduced rat primary neurons, Hill fit, read-out: half maximal effective concentration (EC50) at hM4Di): 8.09 | pEC50 [1]: 5.20 | competitive inhibition of ligand binding (α1A adrenoreceptor): over 50% | competitive inhibition of ligand binding (α2A adrenoreceptor): over 50% | competitive inhibition of ligand binding (D1 dopamine receptor): over 50% | competitive inhibition of ligand binding (D2 dopamine receptor): over 50% | competitive inhibition of ligand binding (H1 histamine receptor; 10 μM compound): over 50% | pKi (H1 histamine receptor; bound stated in discussion): > 7.00 | competitive inhibition of ligand binding (M1 muscarinic receptor): over 50% | competitive inhibition of ligand binding (M2 muscarinic receptor): over 50% | competitive inhibition of ligand binding (M3 muscarinic receptor): over 50% | competitive inhibition of ligand binding [2]: over 50% | competitive inhibition of ligand binding [3]: over 50% | competitive inhibition of ligand binding ([4]; 10 μM compound): over 50% | pKi ([4]; bound stated in discussion): > 7.00 | inhibition (COX1): < 20% | inhibition (COX2): < 20% | inhibition (PDE4D2): < 20% | inhibition (Lck kinase): < 20% | inhibition (AChE): < 20% | pEC50 (hM3Dq): 8.22 | brain concentration by linear extrapolation ([5]; 10 mg/kg CNO): ≤ 70 nM | free (CSF) level by linear extrapolation ([5]; 10 mg/kg CNO): ≤ 30 nM | mean CNO concentration as % of the CLZ concentration in plasma ([5]; 15 min after i.p. 1 mg/kg CLZ): approximately 1.1% | mean concentration in CSF [5, 6]: 11.2 nM | mean concentration in CSF [5, 7]: 10.8 nM | free level (CSF) [5, 8]: ~4.05 nM | detection at all other time points and in the other sample types ([5]; after i.p. 1 mg/kg CLZ, other than plasma at 15 min): no CNO was detectable | mean concentration in brain [5, 6]: 23.8 nM | mean concentration in brain [5, 7]: 18.5 nM | mean concentration in brain [5, 8]: could not be detected
